From patent publication US11179348B2, “Combination comprising pterostilbene for the treatment of cancer” (FUNDACIÓN UNIVERSIDAD CATÓLICA DE VALENCIA SAN VICENTE …, priority 2015, dated 2021)

Tested on: LNCaP cells
Assay: GSH levels and glutathione- and oxidative stress-related enzyme activities in LNCaP cells growing in vivo
Set-up: species or system human
Conditions: in vivo Pter, day 49
Experimental: To measure enzyme activity, isolated tumor cells were homogenized in 0.1 M phosphate buffer (pH 7.2) at 4° C. GCL and GSS activities were measured as described previously (Obrador, E. et al. Hepatology 35, 74-81 (2002)). GPX (selenium dependent) activity was measured as described by Flohé and Gunzler (Flohe, L. & Gunzler, W. A. Methods Enzymol 105, 114-121 (1984)) using H2O2 as a substrate. GSR activity was determined as described by Akerboom and Sies (Akerboom, T. P. et al, Bull Eur Physiopathol Respir 17 Suppl, 221-227 (1981)). GGT activity was measured as described previously (Obrador, E. et al. Hepatology 35, 74-81 (2002)). GST activity was measured using an assay kit from Sigma. TXNRD activity, defined by the concentration of sodium-lipoate (disulfide) reduced to dehydrolipoate (dithiol) per milligram protein, was measured as previously described (Javvadi, P. et al. Cancer Res 70, 1941-1950 (2010)). SOD activity was measured as described by Flohé and Otting (Flohe, L. & Otting, F. Methods Enzymol 105, 93-104 (1984).) using 2 mM cyanide in the assay medium to distinguish mangano-type enzyme (SOD2) from the cuprozinc type (SOD1). CAT activity was analyzed as described by Aebi (Aebi, H. Methods Enzymol 105, 121-126 (1984)). NOX activity was measured by chemiluminescence following the methodology of Wind et al. (Wind, S. et al. Comparative pharmacology of chemically distinct NADPH oxidase inhibitors. Br J Pharmacol 161, 885-898 (2010)). Protein concentration was determined with the Pierce BCA protein assay (Fisher Scientific, Waltham, Mass.).
GSH, GSSG, NADP^+ and NADPH Determination.
GSH and GSSG were determined, following procedures previously described (Obrador, E. et al. PLoS One 9, e96466 (2014)), by LC/MS using the same equipment described above for pterostilbene determination. Cell processing was performed according to published methodology, where rapid N-ethylmaleimide derivatization was used to prevent GSH auto-oxidation (Asensi, M. et al. Anal Biochem 217, 323-328 (1994)). NADP^+ and NADPH were quantitated using an assay kit from Sigma (St. Louis, Mo.).
Isolation of Tumor Cells from Mouse Xenografts Using Enzymatic Digestion and a double Ficoll gradient.
To maximize the amount of isolated cells, avoiding the use of RFP-transfected cells and subsequent laser microdissection, an alternative methodology was set up. To maximize cell yield and viability the following combination of enzymes was used: collagenase III (200 U/ml; Sigma-Aldrich), DNase I (200 U/ml; Sigma-Aldrich) and trypsin (5 mg/ml; Invitrogen), and a non-enzymatic dissociation buffer (NEDB, Invitrogen). Briefly, mice were killed, and tumors were removed (avoiding skin, muscle and fat) into cold culture media and processed immediately. The tumors were minced into 1-3 mm fragments, which were then incubated with the dissociation solution (see above) for 30 min at 37° C. The tumor fragments were mixed up and down every 10 min using a […] micropipette with a tip cut to a diameter adapted to tissue fragment size. After each incubation period, the fragments were filtered through a […] nylon mesh cell strainer (BD Biosciences, San Diego, Calif., USA). The released cells were centrifuged at 1200 r.p.m. for 2 min and stored in cold CO2-independent medium with 30% FCS at […]. Fresh dissociation solution was added to the remaining tissue fragments for 30 min. Dissociation was stopped when no additional cells were released. The fragments were pushed through a sieve and all cells from all incubation periods were pooled and counted.
The dissociated cells were layered onto a double Ficoll gradient (Histopaque; Sigma-Aldrich; densities 1.077 and 1.119) and spun at 700 g for 30 min at room temperature. Cells removed from both interfaces were pooled and washed two times in CO2-independent medium and stored at 4° C. Debris and red blood cell elimination was improved with the dual-density gradient. […]

COc1cc(/C=C/c2ccc(O)cc2)cc(OC)c1 [Pter, trans-3,5-dimethoxy-4′-hydroxystilbene]
CAT: 1.9 ± 0.5 mU/10^6 cells | GCL: 45 ± 14 mU/10^6 cells | GSH: 3.7 ± 1.5 nmol/10^6 cells | GSS: 4.0 ± 1.2 mU/10^6 cells | GSSG: 0.12 ± 0.05 nmol/10^6 cells | SOD1: 0.5 ± 0.1 U/10^6 cells | SOD2: 0.01 ± 0.005 U/10^6 cells
